{"source": "paper PMC2362861", "about": "“Potent interaction of flavopiridol with MRP1” (British Journal of Cancer, 1999)", "key": {"GLC4/ADR cells": {"tested_on": "GLC4/ADR cells", "test": "Steady-state cellular [3H]daunorubicin accumulation in GLC4/ADR cells", "type": "cell-based, human", "conditions": "for Effect on accumulation of DNR in GLC4/ADR cells: 50 µM (μM); for Accumulation of daunorubicin, mean percentages of control (set at 100%): (iso)flavonoid 50 µM (μM), 0.5 M DNR, 75 min"}, "GLC4 cells": {"tested_on": "GLC4 cells", "test": "Steady-state cellular [3H]daunorubicin accumulation in GLC4 cells", "type": "cell-based, human", "conditions": "for Accumulation of daunorubicin, mean percentages of control (set at 100%): GLC4, (iso)flavonoid 50 µM (μM), 0.5 M DNR, 75 min; for Effect on accumulation of DNR in GLC4 cells: 50 µM (μM)"}, "MRP1 ATPase activity": {"biological_target": "T1, MRP1 ATPase activity (Homo sapiens, UniProt P33527)", "T1 construct": "plasma membrane vesicles prepared from the MRP1 overexpressing cell line GLC4/ADR; endogenous in cells; host or cells: GLC4/ADR (adriamycin-selected human small-cell lung cancer subline); plasma membrane vesicles", "T1 sequence (P33527 whole entry)": "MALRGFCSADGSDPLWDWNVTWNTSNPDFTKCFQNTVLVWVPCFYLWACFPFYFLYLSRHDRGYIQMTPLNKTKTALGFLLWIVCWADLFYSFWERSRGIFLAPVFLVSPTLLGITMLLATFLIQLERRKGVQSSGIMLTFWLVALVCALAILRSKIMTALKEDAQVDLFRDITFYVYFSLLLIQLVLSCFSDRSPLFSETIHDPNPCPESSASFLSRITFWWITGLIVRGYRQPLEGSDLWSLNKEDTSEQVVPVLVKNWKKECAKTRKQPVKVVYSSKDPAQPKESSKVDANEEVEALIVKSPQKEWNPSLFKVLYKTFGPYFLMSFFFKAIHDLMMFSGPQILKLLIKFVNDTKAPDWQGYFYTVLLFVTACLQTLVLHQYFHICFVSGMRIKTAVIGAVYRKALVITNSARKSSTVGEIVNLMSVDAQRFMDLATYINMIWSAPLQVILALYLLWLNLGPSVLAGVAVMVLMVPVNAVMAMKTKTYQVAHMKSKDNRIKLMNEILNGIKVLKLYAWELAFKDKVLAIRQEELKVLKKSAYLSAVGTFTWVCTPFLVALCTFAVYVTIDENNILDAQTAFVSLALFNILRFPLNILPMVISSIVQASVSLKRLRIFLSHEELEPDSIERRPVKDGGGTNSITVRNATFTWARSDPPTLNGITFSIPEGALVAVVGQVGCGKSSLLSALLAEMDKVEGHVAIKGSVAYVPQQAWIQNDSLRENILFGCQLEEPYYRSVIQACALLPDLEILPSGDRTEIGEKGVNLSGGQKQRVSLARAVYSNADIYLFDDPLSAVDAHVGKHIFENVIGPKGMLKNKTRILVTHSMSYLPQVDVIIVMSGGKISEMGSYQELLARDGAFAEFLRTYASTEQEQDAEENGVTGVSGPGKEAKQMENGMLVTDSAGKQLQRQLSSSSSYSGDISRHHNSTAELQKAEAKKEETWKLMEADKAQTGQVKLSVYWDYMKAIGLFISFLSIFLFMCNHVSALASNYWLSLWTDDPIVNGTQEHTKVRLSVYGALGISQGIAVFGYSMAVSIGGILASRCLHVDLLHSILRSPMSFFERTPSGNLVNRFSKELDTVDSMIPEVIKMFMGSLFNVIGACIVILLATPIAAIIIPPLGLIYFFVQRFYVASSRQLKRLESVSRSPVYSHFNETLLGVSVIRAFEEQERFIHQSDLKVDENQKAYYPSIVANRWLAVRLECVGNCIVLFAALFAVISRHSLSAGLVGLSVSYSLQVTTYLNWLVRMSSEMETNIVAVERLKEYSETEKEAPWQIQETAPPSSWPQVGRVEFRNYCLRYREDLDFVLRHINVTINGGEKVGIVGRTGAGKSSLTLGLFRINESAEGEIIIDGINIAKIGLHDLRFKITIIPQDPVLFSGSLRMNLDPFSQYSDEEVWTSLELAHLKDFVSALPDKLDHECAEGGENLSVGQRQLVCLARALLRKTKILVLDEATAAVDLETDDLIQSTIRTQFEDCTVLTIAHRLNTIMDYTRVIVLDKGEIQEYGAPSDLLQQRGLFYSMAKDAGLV", "test": "ATPase activity of GLC4/ADR plasma membranes (colourimetric inorganic phosphate)", "type": "biochemical", "conditions": "for Induction of ATPase activity of GLC4/ADR membranes in the concentration range tested: glycosylated (iso)flavonoids, Figure 4", "excerpt": "One form of cellular resistance, directed against a wide spectrum of natural agents, is referred to as multidrug resistance (MDR). […] The ATP-dependent transport of anticancer drugs out of tumour cells that express MDR proteins may at least theoretically lead to impaired treatment outcome of patients. […] 1-Chloro-2,4-dinitrobenzene (CDNB) was from Sigma (St Louis, MO, USA). […] The isoflavonoid genis- tein was from ICN Biomedicals (Zoetermeer, The Netherlands). […] The (iso)flavonoids were dissolved as a stock solution of 40 mM in dimethyl sulphoxide (DMSO; Across Chimica, Belgium) and stored at -20C. Before experiments, 1:1 dilutions were made in ethanol, followed by a dilution in ethanol/water (1: 3; v/v) to the appropriate concentrations. The maximal concentration of DMSO and ethanol, which was also added to the controls, was 0.5% (v/v). Membrane filters OE67 were from Schleicher and Schuell (Dassel, Germany). Doxorubicin hydrochloride was from Laboratoire Roger Bellon (France). […] S1(MRP1) cells were cultured in the presence of G418 until 2-10 days before experiments. […] Cells were harvested by centrifugation (275 g, 5 min) and washed twice in phosphate-buffered saline. Subsequently, the cells were incubated in 100 mM potassium chloride (KCl), 5 mM magnesium chloride (MgCl2 ), 1 mM phenylmethylsulphonyl fluoride and 50 mM HEPES-KOH (pH 7.4) for 1 h at 0C, in order to allow the cells to swell. Then the cells were ultrasonicated at 20% of the maximum power of an MSE sonicator (Soniprep 150) for three bursts of 15 s. The suspension was centrifuged at 1500 g for 10 min. […] After centrifugation at 100 000 g for 60 min the interface was removed and washed in 100 mM KC1-50 mM HEPES-5 mM MgCl2 buffer (pH 7.4). The final membrane preparations were stored at -80C at a protein concentration of ~ 4 mg ml-1 . […] Vesicles were incubated in KCl-HEPES buffer (pH 7.4) at 37C (protein concentration ~ 0.25 mg ml-1 ), in the presence of 10 mM MgCl2 with or without 1 mM ATP and tritium-labelled DNP-SG. The reaction was stopped by adding ice-cold KCl-HEPES buffer. After rapid filtration, the filters were washed twice with KCl-HEPES buffer. The radioactivity on the filters was measured by liquid scintillation counting. […] Plasma membranes were incubated for 1 h in KCl-HEPES buffer (pH 7.4) at 37C, in the presence of 1 mM EGTA, 1 mM sodium azide and 0.1 mM ouabain, with or without 1 mM ATP. […] Plasma membranes from GLC4 cells (black bars) and GLC4 /ADR cells (white bars) were incubated with 10 nM DNP-SG in the absence or presence of the MIB6 antibody (MIB6) (10 g ml-1 ) or an MRP1 control antibody (10 g ml-1 ). […] In short, anti-MRP1 antibodies were tested for their capacity to inhibit DNP-SG transport into GLC4 /ADR inside-out plasma membrane vesicles."}, "MRP1": {"biological_target": "T2, MRP1 (Homo sapiens, UniProt P33527)", "T2 construct": "using MRP1-transfected cells and several couples of MRP1 overexpressing cell lines and their parental cell lines; endogenous in cells; host or cells: GLC4, GLC4/ADR, HL60, HL60/ADR and SW1573 (endogenous)", "T2 sequence (P33527 whole entry)": "as above", "test": "ATP-dependent uptake of DNP-SG into GLC4/ADR plasma membrane vesicles", "type": "biochemical", "conditions": "using 100 nM DNP-SG", "excerpt": "One form of cellular resistance, directed against a wide spectrum of natural agents, is referred to as multidrug resistance (MDR). […] The ATP-dependent transport of anticancer drugs out of tumour cells that express MDR proteins may at least theoretically lead to impaired treatment outcome of patients. […] 1-Chloro-2,4-dinitrobenzene (CDNB) was from Sigma (St Louis, MO, USA). […] The isoflavonoid genis- tein was from ICN Biomedicals (Zoetermeer, The Netherlands). […] The (iso)flavonoids were dissolved as a stock solution of 40 mM in dimethyl sulphoxide (DMSO; Across Chimica, Belgium) and stored at -20C. Before experiments, 1:1 dilutions were made in ethanol, followed by a dilution in ethanol/water (1: 3; v/v) to the appropriate concentrations. The maximal concentration of DMSO and ethanol, which was also added to the controls, was 0.5% (v/v). Membrane filters OE67 were from Schleicher and Schuell (Dassel, Germany). Doxorubicin hydrochloride was from Laboratoire Roger Bellon (France). […] S1(MRP1) cells were cultured in the presence of G418 until 2-10 days before experiments. […] Cells were harvested by centrifugation (275 g, 5 min) and washed twice in phosphate-buffered saline. […] The radioactivity on the filters was measured by liquid scintillation counting. […]"}, "GLC4": {"tested_on": "GLC4", "test": "Growth inhibition assay, GLC4", "type": "cell-based, human", "conditions": "for IC50: Homo sapiens, read-out: IC50 value"}, "GLC4/ADR": {"tested_on": "GLC4/ADR", "test": "Growth inhibition assay, GLC4/ADR", "type": "cell-based, human", "conditions": "for Resistance of MRP1 overexpressing cells: 72-h exposures; for IC50: Homo sapiens, GLC-4/ADR, 72 h, read-out: IC50 value"}, "SW1573": {"tested_on": "SW1573", "test": "Growth inhibition assay, SW1573", "type": "cell-based", "conditions": "Homo sapiens, read-out: IC50 value"}, "S1(MRP)": {"tested_on": "S1(MRP)", "test": "Growth inhibition assay, S1(MRP)", "type": "cell-based, human", "conditions": "Homo sapiens, 72 h; S1(MRP); 3 days drug exposure; read-out: IC50 value"}, "S1(1.1)": {"tested_on": "S1(1.1)", "test": "Growth inhibition assay, S1(1.1)", "type": "cell-based", "conditions": "Homo sapiens, 72 h, read-out: IC50 value"}}, "note": "Read-outs that look alike come from different tables or passages of the source."}
{"smiles": "O=c1cc(-c2ccc(O)cc2)oc2cc(O)cc(O)c12", "note": "[Apigenin, apigenin]", "values": [{"measurement": "Effect on accumulation of DNR in GLC4/ADR cells", "setting": "GLC4/ADR cells", "value": "increased the accumulation of DNR"}, {"measurement": "Accumulation of daunorubicin, mean percentages of control (set at 100%)", "setting": "GLC4 cells", "value": 91, "unit": "%"}]}
{"smiles": "O=c1cc(-c2ccc(O)cc2)oc2cc(O[C@@H]3O[C@H](CO)[C@@H](O)[C@H](O)[C@H]3O)cc(O)c12", "note": "[Apigetrin, apigenin-7-glucose]", "values": [{"measurement": "Effect on accumulation of DNR in GLC4/ADR cells", "setting": "GLC4/ADR cells", "value": "did not increase accumulation of DNR"}, {"measurement": "Accumulation of daunorubicin, mean percentages of control (set at 100%)", "setting": "GLC4/ADR cells; GLC4/ADR", "value": 57, "unit": "%"}, {"measurement": "Effect on accumulation of DNR in GLC4 cells", "setting": "GLC4 cells", "value": "small, but significant decrease"}, {"measurement": "Induction of ATPase activity of GLC4/ADR membranes in the concentration range tested", "setting": "MRP1 ATPase activity", "value": "did not induce ATPase activity"}]}
{"smiles": "N[C@@H](CCC(=O)N[C@@H](CSc1ccc([N+](=O)[O-])cc1[N+](=O)[O-])C(=O)NCC(=O)O)C(=O)O", "note": "[DNP-SG, dinitrophenyl-S-glutathione]", "values": [{"measurement": "Stimulation of basal ATPase activity of GLC4/ADR membranes above the control", "setting": "MRP1 ATPase activity; 10 M DNP-SG (μM)", "value": 4.5, "unit": "nmol mg protein-1 min-1"}, {"measurement": "ATPase activity stimulation compared to the control", "setting": "MRP1 ATPase activity; 10 M DNP-SG (μM), without MIB6", "value": 125, "unit": "%"}, {"measurement": "ATP-dependent uptake of DNP-SG into GLC4/ADR vesicles", "setting": "MRP1", "value": 490, "unit": "pmol mg protein-1 min-1"}]}
{"smiles": "O=c1c(-c2ccc(O)cc2)coc2cc(O)cc(O)c12", "note": "[Genistein, genistein]", "values": [{"measurement": "Effect on accumulation of DNR in GLC4/ADR cells", "setting": "GLC4/ADR cells", "value": "increased the accumulation of DNR"}, {"measurement": "Difference of DNR accumulation from control (P < 0.05)", "setting": "GLC4/ADR cells; GLC4/ADR, 10 M genistein (μM), Figure 6", "value": "gave a significant difference"}, {"measurement": "Modulation of cellular accumulation of DNR at low micromolar concentrations", "setting": "GLC4/ADR cells; GLC4/ADR, Figure 6", "value": "did not modulate"}, {"measurement": "Accumulation of daunorubicin, mean percentages of control (set at 100%)", "setting": "GLC4 cells", "value": 107, "unit": "%"}, {"measurement": "IC50", "setting": "GLC4; 72 h, GLC4, 3 days drug exposure", "value": 12, "unit": "µM"}, {"measurement": "Resistance of MRP1 overexpressing cells", "setting": "GLC4/ADR", "value": "No resistance"}, {"measurement": "IC50", "setting": "GLC4/ADR; GLC4/ADR, 3 days drug exposure", "value": 13, "unit": "µM"}, {"measurement": "ATPase stimulation, % of the control", "setting": "MRP1 ATPase activity; 50 µM genistein (μM), without MIB6", "value": 108, "unit": "%"}, {"measurement": "Concentrations at which ATPase activity of GLC4/ADR membranes was significantly induced", "setting": "MRP1 ATPase activity; GLC4/ADR membranes, lowest effective concentration and higher", "value": "≥ 1", "unit": "µM"}, {"measurement": "IC50", "setting": "SW1573; 72 h, SW1573, 3 days drug exposure", "value": 10, "unit": "µM"}, {"measurement": "IC50", "setting": "S1(MRP)", "value": 9, "unit": "µM"}, {"measurement": "IC50", "setting": "S1(1.1); S1(1.1), 3 days drug exposure", "value": 9, "unit": "µM"}]}
{"smiles": "O=c1c(-c2ccc(O)cc2)coc2cc(O[C@@H]3O[C@H](CO)[C@@H](O)[C@H](O)[C@H]3O)cc(O)c12", "note": "[Genistin, genistein-7-glucose]", "values": [{"measurement": "Effect on accumulation of DNR in GLC4/ADR cells", "setting": "GLC4/ADR cells", "value": "did not increase accumulation of DNR"}, {"measurement": "Accumulation of daunorubicin, mean percentages of control (set at 100%)", "setting": "GLC4/ADR cells; GLC4/ADR", "value": 96, "unit": "%"}, {"measurement": "Accumulation of daunorubicin, mean percentages of control (set at 100%)", "setting": "GLC4 cells", "value": 101, "unit": "%"}, {"measurement": "Induction of ATPase activity of GLC4/ADR membranes in the concentration range tested", "setting": "MRP1 ATPase activity", "value": "did not induce ATPase activity"}]}
{"smiles": "O=c1c(O)c(-c2ccc(O)cc2)oc2cc(O)cc(O)c12", "note": "[Kaempferol, kaempferol]", "values": [{"measurement": "Effect on accumulation of DNR in GLC4/ADR cells", "setting": "GLC4/ADR cells", "value": "increased the accumulation of DNR"}, {"measurement": "Accumulation of daunorubicin, mean percentages of control (set at 100%)", "setting": "GLC4/ADR cells; GLC4/ADR", "value": 190, "unit": "%"}, {"measurement": "Accumulation of daunorubicin, mean percentages of control (set at 100%)", "setting": "GLC4 cells", "value": 92, "unit": "%"}, {"measurement": "IC50", "setting": "GLC4; GLC4, 72 h", "value": 25, "unit": "µM"}, {"measurement": "Resistance of MRP1 overexpressing cells", "setting": "GLC4/ADR", "value": "No resistance"}, {"measurement": "IC50", "setting": "GLC4/ADR", "value": 11, "unit": "µM"}, {"measurement": "IC50", "setting": "SW1573; SW1573, 72 h", "value": 29, "unit": "µM"}, {"measurement": "IC50", "setting": "S1(1.1)", "value": 43, "unit": "µM"}]}
{"smiles": "O=c1c(O[C@@H]2O[C@H](CO)[C@@H](O)[C@H](O)[C@H]2O)c(-c2ccc(O)cc2)oc2cc(O)cc(O)c12", "note": "[Kaempferol-3 glucose, kaempferol-3-glucose]", "values": [{"measurement": "Effect on accumulation of DNR in GLC4/ADR cells", "setting": "GLC4/ADR cells", "value": "did not increase accumulation of DNR"}, {"measurement": "Effect on accumulation of DNR in GLC4 cells", "setting": "GLC4 cells", "value": "small, but significant decrease"}]}
{"smiles": "CCCN(CCC)S(=O)(=O)c1ccc(C(=O)O)cc1", "note": "[probenecid]", "values": [{"measurement": "Effect of simultaneous incubation with probenecid on the cytotoxic effect of flavopiridol", "setting": "GLC4; GLC4, probenecid 0.5 mM, data not shown", "value": "did not alter"}, {"measurement": "Effect of simultaneous incubation with probenecid on the cytotoxic effect of flavopiridol", "setting": "GLC4/ADR; GLC4/ADR, probenecid 0.5 mM, data not shown", "value": "did not alter"}]}
